Assay results as given in patent EP0081425B1, “Pharmaceutical compositions having normolipemic properties and containing compounds of the n-substituted benzenesulfonamide type” (priority 1981, dated 1983).
Where two headings read alike, the source gives them in different places.

Columns and labels:
[1] = system: hyperlipidémie provoquée par l'administration de TRITON®; assay: Triton test: hyperlipidemia induced by i.v. TRITON W.R. in fasted rats; format: in vivo, rats WISTAR mâles; details: for Cholestérol estérifié Score (par rapport au clofibrate compté pour 1) / Cholestérol total Score (par rapport au clofibrate compté pour 1) / Lipides totaux Score (par rapport au clofibrate compté pour 1) / Triglycérides Score (par rapport au clofibrate compté pour 1): ratio to clofibrate of the same series; for inhibition in vivo at 250 mg/kg: Rattus norvegicus, po, blood assayed 6 h and/or 24 h later
Description: Dans une première série d'expériences, des produits ont été testés sur une hyperlipidémie provoquée par l'administration de TRITON® selon le protocole suivant.
Les essais ont été réalisés sur des groupes de cinq rats WISTAR mâles dont le poids varie de 150 à 175 g.
Pour effectuer ces essais, on provoque une hyperlipidémie chez les animaux, au moyen du produit commercialisé par la Société ROHM and HAAS sous le nom de TRITON® W. R.
On observe, sur cette hyperlipidémie, les effets obtenus par administration des substances actives selon l'invention.
Les essais sont réalisés comme suit : • les rats sont mis à jeûner pendant 18 heures, puis on administre le TRITON® W.R. par voie intraveineuse en solution aqueuse à 10 % à raison de 200 mg/kg ;
6 heures et/ou 24 heures plus tard, on effectue les dosages sur le sang de façon traditionnelle.
Dans la première colonne, on a indiqué le numéro du composé testé.
Dans la deuxième colonne, on a indiqué le nombre d'animaux qui ont été soumis au test.
Dans les quatre dernières colonnes, on a indiqué les résultats relatifs respectivement : • aux lipides totaux, • aux triglycérides, • au cholestérol total, • au cholestérol estérifié.
Dans chacune de ces colonnes, on indique : • a) le pourcentage de diminution par rapport au témoin TRITON; • b) le score par rapport au clofibrate de référence, c'est-à-dire le rapport de l'intensité de l'activité du produit testé vis-à-vis de celle,de l'activité au clofibrate comptée pour 1.

[2] = system: animaux ayant reçu pendant une durée prolongée un régime athéromateux; assay: Atheromatous diet test (cholesterol/cholic acid diet + vitamin D2): biochemical, macroscopic and microscopic examinations; format: in vivo, rats WISTAR femelles
Description: Dans une deuxième série expérimentale, on a testé l'activité de certains produits de l'invention sur des animaux ayant reçu pendant une durée prolongée un régime athéromateux.
L'essai s'effectue sur des rats WISTAR femelles, d'un poids d'environ 160-180 g.
Les animaux reçoivent une alimentation provenant de l'usine d'alimentation nationale de Villemois- son-Sur-Orge, France, et désignée sous la référence UAR A03, enrichie en cholestérol (0,5 %) et en acide cholique (0,5 %).
Après 15 jours de régime athéromateux et tout en maintenant les animaux sous régime athéromateux, on leur administre par voie orale pendant 4 jours 250 000 ui/kg de vitamine D2 commercialisée sous le nom de Stérogyl 25H, en solution dans de l'huile d'olive.
On administre ensuite les produits à étudier pendant 4 semaines, dès la fin de l'administration de l'agent lésionnel.
La quantité de produit administrée aux animaux est de 100 mg/kg.
En fin d'étude, on effectue sur tous les animaux des examens biochimiques (cholestérol total, cholesterol high density lipoprotein (HDL) et cholesterol low density lipoprotein (LDL), et triglycérides).
En fin d'étude, tous les animaux encore vivants sont sacrifiés, et l'on prélève divers organes dont particulièrement l'aorte, pour l'étude histologique de cette dernière. Deux critères sont étudiés : le nombre de zones athéromateuses et l'intensité des lésions.
Le calcul des cotations s'effectue de la façon suivante : • en ce qui concerne l'intensité des lésions, on effectue une cotation allant de 0 pour l'absence de lésion à […] pour les lésions les plus fortes, et ceci pour chaque type d'altération considéré (augmentation des espaces interlamellalres, interruption des lames élastiques, épaississement des lames élastiques, dépôt de calcium, dépôt de mucopolysaccharides); puis on fait l'addition de la totalité des résultats par lot d'animaux; • en ce qui concerne le nombre de zones athéromateuses, par comptage de ces dernières et addition de la totalité des chiffres obtenus par lot d'animaux.
On calcule ensuite le pourcentage de diminution par rapport aux témoins régime et le score, c'est-à-dire le rapport de l'intensité de l'activité du produit testé vis-à-vis de celle de l'activité du clofibrate, compté pour 1.
Le tableau IV donne les résultats détaillés des examens biochimiques : • a) en % de diminution par rapport au témoin régime; • b) en score, par rapport au produit de référence, le clofibrate, ce dernier étant compté pour 1.
Le tableau V donne le résultat des examens macroscopiques : • a) en % de diminution des animaux atteints de lésions; • b) en score par rapport au clofibrate de référence, dont le score est compté pour 1.
Le tableau VI donne les résultats microscopiques avec cotation histologique concernant l'intensité des lésions, et le nombre de zones athéromateuses.

[3] = Acute oral toxicity (lethal dose); format: in vivo; details: mouse, in vivo, po, oral, read-out: DL50 (the source's name) (converted)
Description: (§1) La toxioité aiguë est exprimée par la dose létale 50, c'est-à-dire la dose létale entraînant la mort de 50 % des animaux.
(§2) Cette étude a été effectuée sur des souris mâles et femelles auxquelles on a administré les produits à tester par voie orale à des concentrations différentes et on a mesuré la létalité sur dix souris mâles et sur 10 souris femelles.

souris mâles et femelles = assay: Acute oral toxicity (lethal dose); format: in vivo; details: for DL0 / DL100: oral
Description: as §1, §2

[4] = macroscopic examination, 100 mg/kg for 4 weeks
[5] = 250 mg/kg oral, given with TRITON W.R. 200 mg/kg i.v., read-out: Cholestérol estérifié % (pourcentage de diminution par rapport au témoin TRITON)
[6] = 250 mg/kg oral, given with TRITON W.R. 200 mg/kg i.v., read-out: Cholestérol total % (pourcentage de diminution par rapport au témoin TRITON)
[7] = 250 mg/kg oral, given with TRITON W.R. 200 mg/kg i.v., read-out: Triglycérides % (pourcentage de diminution par rapport au témoin TRITON)
[8] = read-out: Lipides totaux % (pourcentage de diminution par rapport au témoin TRITON), 250 mg/kg oral, given with TRITON W.R. 200 mg/kg i.v.

SMILES | Cholestérol estérifié Score (par rapport au clofibrate compté pour 1) ([1]; 250 mg/kg oral) | Cholestérol total Score (par rapport au clofibrate compté pour 1) ([1]; 250 mg/kg oral) | Lipides totaux Score (par rapport au clofibrate compté pour 1) ([1]; 250 mg/kg oral) | Triglycérides Score (par rapport au clofibrate compté pour 1) ([1]; 250 mg/kg oral) | inhibition in vivo at 250 mg/kg [1, 5] [%] | inhibition in vivo at 250 mg/kg [1, 6] [%] | inhibition in vivo at 250 mg/kg [1, 7] [%] | inhibition in vivo at 250 mg/kg [1, 8] [%] | also measured
CCOC(=O)C(C)(C)Oc1ccc(Cl)cc1 [Clofibrate] | 1,00 | 1,00 | 1,00 | 1,00 | – | – | – | – | CHOLESTEROL HDL Score (clofibrate compté pour 1) ([2]; 100 mg/kg for 4 weeks): 1,00; CHOLESTEROL LDL Score (clofibrate compté pour 1) ([2]; 100 mg/kg for 4 weeks): 1,00; CHOLESTEROL T Score (clofibrate compté pour 1) ([2]; 100 mg/kg for 4 weeks): 1,00; TRIGLYCERIDES Score (clofibrate compté pour 1) ([2]; 100 mg/kg for 4 weeks): 1,00; ANIMAUX ATTEINTS % [2, 4]: 81,82%; ANIMAUX ATTEINTS SCORE CLOFIBRATE [2, 4]: 1,00; NOMBRE DE ZONES ATHEROMATEUSES POUR 15 ANIMAUX Score Clofibrate ([2]; microscopic examination): 1,00; COTATION HISTOLOGIQUE Cotation ([2]; microscopic examination of the aorta, intensity of lesions, sum per group, 100 mg/kg for 4 weeks): 49,10; NOMBRE DE ZONES ATHEROMATEUSES POUR 15 ANIMAUX Cotation ([2]; microscopic examination of the aorta, 100 mg/kg for 4 weeks): 72,30; COTATION HISTOLOGIQUE Score Clofibrate ([2]; microscopic examination, intensity of lesions): 1,00
CCC(CO)NS(=O)(=O)c1cc(Cl)c([N+](=O)[O-])cc1OC (stereo not shown) [compound 316] | 0,63 | 1,17 | 3,09 | – | 31.2 | 11.1 | 0 | 42.6 | LD50 ([3]; Souris femelles): > 15000 mg/kg; LD50 ([3]; Souris mâles): 18500 mg/kg; DL0 (souris mâles et femelles; Souris femelles): ≥ 15 000 mg/kg; DL100 (souris mâles et femelles; Souris femelles): > 15 000 mg/kg; DL0 (souris mâles et femelles; Souris mâles): 15 000 mg/kg; DL100 (souris mâles et femelles; Souris mâles): > 20 000 mg/kg; toxicité par voie digestive (souris mâles et femelles; conclusion in words from all results): pratiquement dénué de toxicité par voie digestive
COc1cc([N+](=O)[O-])ccc1S(=O)(=O)N(C)CCO [compound 325] | 0,04 | – | 0,06 | – | 1.6 | 0 | 0 | 2.7 | –
COc1cc([N+](=O)[O-])ccc1S(=O)(=O)NCC(C)O (stereo not shown) [compound 319] | 0,33 | 0,17 | 1,55 | 0,78 | 16.4 | 1.6 | 56.5 | 21.4 | –
CCC(CO)NS(=O)(=O)c1cc(N)ccc1OC (stereo not shown) [Composé n° 315] | – | 1,83 | 3,61 | 0,53 | 0.8 | 17.4 | 38.1 | 49.8 | –
